Results on one substance are retold here after patent US10092657B2, “Opsonized β-glucan preparations and methods” (Biothera, Inc., priority 2011, dated 2018).

This assay relates to human neutrophils. In words: Binding studies on the role of complement proteins in serum, neutrophils. The assay is classed as cell-based. The protocol: Heat-inactivated (HI) serum was prepared by incubating serum in a 56° C. water bath for 30 minutes. […] Treatment of serum with methylamine (MA) was done by incubating serum with 0.67% of methylamine for 2.5 hours at 37° C., followed by three washes with DPBS using Amicon centrifugal filter unit with a 3K MW cut-off (Millipore, Billerica, Mass.). DPBS-treated serum was prepared in the same manner and used as control serum for MA-treated serum. For blocking of factor D in the serum, 166-32 at concentration 20 μg/mL was incubated with serum on ice for 30 minutes, and then used for binding studies. For binding experiments in the presence of EGTA or MgEGTA, serum was incubated with 10 mM EGTA with or without 10 mM MgCl2 for 10 minutes at room temperature. The untreated and EGTA/MgEGTA-treated serum was then used to pre-treat PGG and perform binding studies as described earlier.

For “β(1,6)-[poly-1,3)-D-glucopyranosyl]-poly-β(1,3)-D-glucopyranose [PGG β-glucan]”, the “Binding in the presence of heat inactivated (HI) serum” value (10% HI serum vs regular serum, 200 μg/mL) is reported as “abrogated”. Also, for the setting “based on MFI, five donors”, the “Average percentage of binding inhibition in HI serum” value is on record as 89% and the “Range of percentage of binding inhibition in HI serum” value is listed as 71-100%.
